Usually IC50 stands for the concentration at which inhibition is half-maximal.

SMILES strings stand for the structures. Bridge positions count the residues as written; N and C are the ends. Square brackets hold non-standard residues; d marks the D form. Peptide text beside a SMILES is read from it. * marks the point of attachment. ξ: configuration not given here. Bip = N[C@@H](Cc1ccc(-c2ccccc2)cc1)C(=O)O; Phe(3-Me) = Cc1cccc(C[C@H](N)C(=O)O)c1; hArg = N=C(N)NCCCC[C@H](N)C(=O)O; Aad = N[C@@H](CCCC(=O)O)C(=O)O; Cha = N[C@@H](CC1CCCCC1)C(=O)O; Cit = NC(=O)NCCC[C@H](N)C(=O)O; Ile(3ξ) = CCC(C)[C@H](N)C(=O)O; Thr(3ξ) = CC(O)[C@H](N)C(=O)O; dDab = NCC[C@@H](N)C(=O)O; Carboxymethyl = O=C(O)C*; Orn = NCCC[C@H](N)C(=O)O; Aun = NCCCCCCCCCCC(=O)O; Dab = NCC[C@H](N)C(=O)O; Dap = NC[C@H](N)C(=O)O; AEEA = NCCOCCOCC(=O)O

The assay deals with T1, PD-1/PD-L1 interaction (PE-labeled human PD-L1-Ig binding to Jurkat cell line over-expressing human PD-1) (Homo sapiens, UniProt Q15116).
T1 construct: expressed in transfected cells; host or cells: Jurkat
T1 sequence (Q15116 25-288): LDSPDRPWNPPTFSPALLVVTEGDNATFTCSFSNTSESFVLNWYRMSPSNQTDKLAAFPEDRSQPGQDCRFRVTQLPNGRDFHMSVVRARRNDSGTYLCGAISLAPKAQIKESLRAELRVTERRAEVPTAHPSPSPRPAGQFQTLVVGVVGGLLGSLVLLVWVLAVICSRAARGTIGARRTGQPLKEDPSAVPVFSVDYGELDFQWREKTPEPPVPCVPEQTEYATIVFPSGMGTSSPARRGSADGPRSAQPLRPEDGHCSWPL
The assay is described as follows: Jurkat-PD-1 Cell Binding High-Content Screening Assay (CBA). In kind it is cell-based. The settings on record: Jurkat cell line over-expressing human PD-1; PE-labeled PD-L1-Ig 20 nM final; read-out: Jurkat hPD1-PDL1 IC50. Here is the method: Example 2: Jurkat-PD-1 Cell Binding High-Content Screening Assay (CBA)
Phycoerythrin (PE) was covalently linked to the Ig epitope tag of human PD-L1-Ig and fluorescently-labeled PD-L1-Ig was used for binding studies with a Jurkat cell line over-expressing human PD-1 (Jurkat-PD-1). Briefly, 8×10^3 Jurkat-hPD-1 cells were seeded into 384 well plates in 20 μl of DMEM supplemented with 10% fetal calf serum. 100 nl of compound was added to cells followed by incubation at 37° C. for 2 h. Then, 5 μl of PE-labeled PD-L1-Ig (20 nM final), diluted in DMEM supplemented with 10% fetal calf serum. After 1 hour incubation, cells were fixed with 4% paraformaldehyde in dPBS containing 10 μg/ml Hoechst 33342 and then washed 3× in 100 μl dPBS. Data was collected and processed using a Cell Insight NXT High Content Imager and associated software.
Turning to `Cc1cccc(C[C@@H]2NC(=O)[C@H](CC(=O)O)NC(=O)[C@H](Cc3ccc(OCC(=O)O)cc3)NC(=O)[C@H](Cc3ccc(OCC(=O)O)cc3)NC(=O)CSC[C@@H](C(=O)N[C@H](CCN)C(=O)NCCCCCCCCCCC(=O)O)NC(=O)[C@H](CO)NC(=O)[C@H](C(C)C)NC(=O)[C@H](CC(C)C)NC(=O)[C@H](CCN)NC(=O)[C@@H](CC(C)C)NC(=O)[C@H](CCCN)NC(=O)[C@H](C(C)C)NC(=O)[C@H](Cc3ccc(-c4ccccc4)cc3)NC(=O)[C@@H](CC(C)C)NC2=O)c1` [Compound 1145] ({CH2CO}-Y(Carboxymethyl)Y(Carboxymethyl)D[Phe(3-Me)][dL][Bip]V[Orn][dL][Dab]LVSC[dDab][Aun]-OH; thioether N-14), the IC50 worked out at 26.1 nM.
For `Cc1cccc(C[C@@H]2NC(=O)[C@H](CC(=O)O)NC(=O)[C@H](Cc3ccc(OCC(=O)O)cc3)NC(=O)[C@H](CN)NC(=O)CSC[C@@H](C(=O)N[C@@H](CCN)C(=O)NCCOCCOCC(=O)NCCCCCCCCCCC(=O)O)NC(=O)[C@H](CCCN)NC(=O)[C@H](Cc3ccc(O)cc3)NC(=O)[C@H](CC3CCCCC3)NC(=O)[C@H](CCN)NC(=O)[C@@H](CC(C)C)NC(=O)[C@H](CCCN)NC(=O)[C@H](CCCNC(N)=O)NC(=O)[C@H](Cc3ccc(-c4ccccc4)cc3)NC(=O)[C@H](Cc3ccc(O)cc3)NC2=O)c1` [Compound 2572] ({CH2CO}-[Dap]Y(Carboxymethyl)D[Phe(3-Me)]Y[Bip][Cit][Orn][dL][Dab][Cha]Y[Orn]C[Dab][AEEA][Aun]-OH; thioether N-14) the value was 21.6 nM; for `CCC(C)[C@@H]1NC(=O)[C@H](Cc2ccc(-c3ccccc3)cc2)NC(=O)[C@H](C(C)C)NC(=O)[C@H](Cc2c[nH]c3ccccc23)NC(=O)[C@H](CC(=O)O)NC(=O)[C@H](Cc2ccc(OCC(=O)O)cc2)NC(=O)[C@H](CCCCNC(=N)N)NC(=O)CSC[C@@H](C(=O)NCCOCCOCC(=O)N[C@@H](CCCCN)C(=O)NCCCCCCCCCCC(=O)O)NC(=O)[C@H](CO)NC(=O)[C@H](C(C)C)NC(=O)[C@H](CC2CCCCC2)NC(=O)[C@H](CCN)NC(=O)[C@@H](CC(C)C)NC(=O)[C@H](CCCN)NC1=O` (stereo partly drawn) [Compound 3082] ({CH2CO}-[hArg]Y(Carboxymethyl)DWV[Bip][Ile(3ξ)][Orn][dL][Dab][Cha]VSC[AEEA]K[Aun]-OH; thioether N-14), 11.3 nM.
For the molecule `CC(C)C[C@H]1NC(=O)[C@H](CCCN)NC(=O)[C@H](C(C)C)NC(=O)[C@H](Cc2ccc(-c3ccccc3)cc2)NC(=O)[C@H](C(C)C)NC(=O)[C@H](Cc2c[nH]c3ccccc23)NC(=O)[C@H](CC(=O)O)NC(=O)[C@H](Cc2ccc(OCC(=O)O)cc2)NC(=O)[C@H](CCCCNC(=N)N)NC(=O)CSC[C@@H](C(=O)N[C@@H](CCN)C(=O)NCCCCCCCCCCC(=O)O)NC(=O)[C@H](C(C)O)NC(=O)[C@H](C(C)C)NC(=O)[C@H](CC2CCCCC2)NC(=O)[C@H](Cc2cnc[nH]2)NC1=O` (stereo partly drawn) [Compound 3151] ({CH2CO}-[hArg]Y(Carboxymethyl)DWV[Bip]V[Orn][dL]H[Cha]V[Thr(3ξ)]C[Dab][Aun]-OH; thioether N-14), the IC50 was 34.1 nM.
Take `Cc1cccc(C[C@@H]2NC(=O)[C@H](CC(=O)O)NC(=O)[C@H](Cc3ccc(OCC(=O)O)cc3)NC(=O)[C@H](CN)NC(=O)CSC[C@@H](C(=O)NCCOCCOCC(=O)NCCCCCCCCCCC(=O)O)NC(=O)[C@H](CN)NC(=O)[C@H](C(C)C)NC(=O)[C@H](CC3CCCCC3)NC(=O)[C@H](CCN)NC(=O)[C@@H](CC(C)C)NC(=O)[C@H](CCCN)NC(=O)[C@H](C(C)C)NC(=O)[C@H](Cc3ccc(-c4ccccc4)cc3)NC(=O)[C@H](C(C)C)NC2=O)c1` [Compound 2566] ({CH2CO}-[Dap]Y(Carboxymethyl)D[Phe(3-Me)]V[Bip]V[Orn][dL][Dab][Cha]V[Dap]C[AEEA][Aun]-OH; thioether N-14): the half-maximal inhibitory concentration (IC50) is 9.4 nM.
Take `CC(C)C[C@H]1NC(=O)[C@H](CCCN)NC(=O)[C@H](C(C)C)NC(=O)[C@H](Cc2ccc(-c3ccccc3)cc2)NC(=O)[C@H](C(C)C)NC(=O)[C@H](Cc2c[nH]c3ccccc23)NC(=O)[C@H](CC(=O)O)NC(=O)[C@H](Cc2ccc(OCC(=O)O)cc2)NC(=O)[C@H](CN)NC(=O)CSC[C@@H](C(=O)NCCOCCOCC(=O)N[C@@H](CC(=O)O)C(=O)NCCCCCCCCCCC(=O)O)NC(=O)[C@H]([C@@H](C)O)NC(=O)[C@H](C(C)C)NC(=O)[C@H](CC2CCCCC2)NC(=O)[C@H](Cc2cnc[nH]2)NC1=O` [Compound 1105] ({CH2CO}-[Dap]Y(Carboxymethyl)DWV[Bip]V[Orn][dL]H[Cha]VTC[AEEA]D[Aun]-OH; thioether N-14): the concentration for half-maximal inhibition (IC50) is 23 nM.
As to `Cc1cccc(C[C@@H]2NC(=O)[C@H](CC(=O)O)NC(=O)[C@H](Cc3ccc(OCC(=O)O)cc3)NC(=O)[C@H](CN)NC(=O)CSC[C@@H](C(=O)N[C@@H](CCN)C(=O)NCCCCCCCCCCC(=O)O)NC(=O)[C@H](CCCC(N)=O)NC(=O)[C@H](C(C)C)NC(=O)[C@H](CC3CCCCC3)NC(=O)[C@H](CCN)NC(=O)[C@@H](CC(C)C)NC(=O)[C@H](CCCN)NC(=O)[C@H](Cc3ccc(O)cc3)NC(=O)[C@H](Cc3ccc(-c4ccccc4)cc3)NC(=O)[C@H](Cc3ccc(O)cc3)NC2=O)c1` [Compound 2750] ({CH2CO}-[Dap]Y(Carboxymethyl)D[Phe(3-Me)]Y[Bip]Y[Orn][dL][Dab][Cha]V[Aad](NH2)C[Dab][Aun]-OH; thioether N-14), the IC50 was 9.1 nM.
`CC(C)C[C@H]1NC(=O)[C@H](CCCN)NC(=O)[C@H](C(C)C)NC(=O)[C@H](Cc2ccc(-c3ccccc3)cc2)NC(=O)[C@H](C(C)C)NC(=O)[C@H](Cc2c[nH]c3ccccc23)NC(=O)[C@H](CC(=O)O)NC(=O)[C@H](Cc2ccc(OCC(=O)O)cc2)NC(=O)[C@H](CN)NC(=O)CSC[C@@H](C(=O)NCCOCCOCC(=O)N[C@H](CCC(=O)O)C(=O)NCCCCCCCCCCC(=O)O)NC(=O)[C@H]([C@@H](C)O)NC(=O)[C@H](C(C)C)NC(=O)[C@H](CC2CCCCC2)NC(=O)[C@H](Cc2cnc[nH]2)NC1=O` [Compound 1133] ({CH2CO}-[Dap]Y(Carboxymethyl)DWV[Bip]V[Orn][dL]H[Cha]VTC[AEEA][dE][Aun]-OH; thioether N-14): the IC50 came to 30.2 nM.
For `CC(C)C[C@H]1NC(=O)[C@H](CCCN)NC(=O)[C@H](C(C)C)NC(=O)[C@H](Cc2ccc(-c3ccccc3)cc2)NC(=O)[C@H](C(C)C)NC(=O)[C@H](Cc2c[nH]c3ccccc23)NC(=O)[C@H](CC(=O)O)NC(=O)[C@H](Cc2ccc(OCC(=O)O)cc2)NC(=O)[C@H](Cc2ccc(OCC(=O)O)cc2)NC(=O)CSC[C@@H](C(=O)NCCOCCOCC(=O)NCCCCCCCCCCC(=O)O)NC(=O)[C@H](CCCNC(=N)N)NC(=O)[C@H](C(C)C)NC(=O)[C@H](CC2CCCCC2)NC(=O)[C@H](CCN)NC1=O` [Compound 2564] ({CH2CO}-Y(Carboxymethyl)Y(Carboxymethyl)DWV[Bip]V[Orn][dL][Dab][Cha]VRC[AEEA][Aun]-OH; thioether N-14), the half-maximal inhibitory concentration (IC50) is 10 nM.
`Cc1cccc(C[C@@H]2NC(=O)[C@H](CC(=O)O)NC(=O)[C@H](Cc3ccc(OCC(=O)O)cc3)NC(=O)[C@H](C(C)O)NC(=O)CSC[C@@H](C(=O)N[C@H](CC(N)=O)C(=O)NCCCCCCCCCCC(=O)O)NC(=O)[C@H](CCCN)NC(=O)[C@H](C(C)C)NC(=O)[C@H](CC3CCCCC3)NC(=O)[C@H](CCN)NC(=O)[C@@H](CC(C)C)NC(=O)[C@H](CCCN)NC(=O)[C@H](CCCNC(N)=O)NC(=O)[C@H](Cc3ccc(-c4ccccc4)cc3)NC(=O)[C@H](C(C)C)NC2=O)c1` (stereo partly drawn) [Compound 3312] ({CH2CO}-[Thr(3ξ)]Y(Carboxymethyl)D[Phe(3-Me)]V[Bip][Cit][Orn][dL][Dab][Cha]V[Orn]C[dN][Aun]-OH; thioether N-14): the half-maximal inhibitory concentration (IC50) is 4.4 nM.
For the molecule `CC(C)C[C@H]1NC(=O)[C@H](CCCN)NC(=O)[C@H](C(C)C)NC(=O)[C@H](Cc2ccc(-c3ccccc3)cc2)NC(=O)[C@H](C(C)C)NC(=O)[C@H](Cc2c[nH]c3ccccc23)NC(=O)[C@H](CC(=O)O)NC(=O)[C@H](Cc2ccc(OCC(=O)O)cc2)NC(=O)[C@H](Cc2ccc(OCC(=O)O)cc2)NC(=O)CSC[C@@H](C(=O)NCC(=O)NCCOCCOCC(=O)N[C@@H](CCCN)C(=O)NCCCCCCCCCCC(=O)O)NC(=O)[C@H](CCCN)NC(=O)[C@H](C(C)C)NC(=O)[C@H](CC2CCCCC2)NC(=O)[C@H](CC(N)=O)NC1=O` [Compound 3205] ({CH2CO}-Y(Carboxymethyl)Y(Carboxymethyl)DWV[Bip]V[Orn][dL]N[Cha]V[Orn]CG[AEEA][Orn][Aun]-OH; thioether N-14), the 50% inhibitory concentration (IC50) is 12.4 nM.
For `Cc1cccc(C[C@@H]2NC(=O)[C@H](CC(=O)O)NC(=O)[C@H](Cc3ccc(OCC(=O)O)cc3)NC(=O)[C@H](CN)NC(=O)CSC[C@@H](C(=O)N[C@@H](CCN)C(=O)NCCCCCCCCCCC(=O)O)NC(=O)[C@H]([C@@H](C)O)NC(=O)[C@H](C(C)C)NC(=O)[C@H](CC3CCCCC3)NC(=O)[C@H](CCN)NC(=O)[C@@H](CC(C)C)NC(=O)[C@H](CCCN)NC(=O)[C@H](Cc3ccc(O)cc3)NC(=O)[C@H](Cc3ccc(-c4ccccc4)cc3)NC(=O)[C@H](Cc3ccc(O)cc3)NC2=O)c1` [Compound 2711] ({CH2CO}-[Dap]Y(Carboxymethyl)D[Phe(3-Me)]Y[Bip]Y[Orn][dL][Dab][Cha]VTC[Dab][Aun]-OH; thioether N-14), the IC50 is 10.4 nM.

The values are drawn from patent US20260022142A1, “MACROCYCLIC IMMUNOMODULATORS” (Bristol-Myers Squibb Company, priority 2022, published 2026).
